{"source": "patent US7008943B2", "about": "“1-(Pyrrolidin-1-ylmethyl)-3-(pyrrol-2-ylmethylidene)-2-indolinone derivatives” (Pharmacia & Upjohn Company, priority 2000, dated 2006)", "key": {"[1]": {"assay": "Plasma Stability Test: conversion of prodrug to drug after IV administration to dogs, HPLC analysis of blood plasma", "format": "in vivo", "conditions": "IV at 2 mg/mL, blood plasma followed by HPLC for 4 hours following dosing", "method": "The prodrug (3Z)-3-[(3,5-dimethyl-1H-pyrrol-2-yl)-methylidene]-1-(1-pyrrolidinylmethyl)-1,3-dihydro-2H-indol-2-one was administered IV at 2 mg/mL to dogs. Levels of both prodrug and drug (3(Z)-3-[(3,5-dimethyl-1H-pyrrol-2-yl)-methylidene]-1,3-dihydro-2H-indol-2-one) were followed by HPLC analysis of blood plasma for 4 hours following dosing."}, "[2]": {"assay": "Aqueous solubility of prodrug versus parent compound", "format": "physicochemical", "conditions": "versus parent compound (II)", "description": "The prodrug compounds of the present invention have advantages over compounds of Formula (II) by virtue of improved aqueous solubility and formulability. […] It is contemplated that similar enhanced solubility will be observed for other compounds of Formula (I) carrying the pyrrolidin-1-ylmethyl moiety at the nitrogen of the indolinone ring. A general description of the advantages and uses of prodrugs as pharmaceutically useful compounds is given in an article by Waller and George in Br. J Clin. Pharmac., Vol. 28, pp. 497–507, 1989."}}}
{"smiles": "Cc1cc(C)c(/C=C2\\C(=O)N(CN3CCCC3)c3ccccc32)[nH]1", "note": "[Example 1, (3Z)-3-[(3,5-Dimethyl-1H-pyrrol-2-yl)-methylidene]-1-(1-pyrrolidinylmethyl)-1,3-dihydro-2H-indol-2-one]", "values": [{"measurement": "half-life for conversion of the prodrug to drug", "setting": "[1]", "value": 7.3, "unit": "min"}, {"measurement": "prodrug converted into drug (from area under the curve of drug concentration vs. time)", "setting": "[1]", "value": 80, "unit": "%"}, {"measurement": "aqueous solubility compared with the parent compound", "setting": "[2]", "value": "increased aqueous solubility"}]}
